Measured values taken from patent US20100184708A1, “USE OF GLY-PRO-GLU-OH (GPE) AS A THERAPEUTIC AGENT” (priority 2007, published 2010).

Test system: drug-resistant Mycobacterium tuberculosis
Details: peptide 10 micrograms per ml, seven days

Question: How did the “% inhibition” value turn out when NCC(=O)N1CCC[C@H]1C(=O)N[C@@H](CCC(=O)O)C(=O)O [IGF-I (1-3), Gly-Pro-Glu-OH] was run?
Answer: 0.0%
